Data reported in US20230157952A1, “METHOD FOR IMPROVING THE STABILITY OF A PHARMACEUTICAL COMPOSITION COMPRISING A HIGH PENETRATION DRUG, AND THE PHARMACEUTICAL COMPOSITION OBTAINED THEREFROM” (Techfields Inc., priority 2020, published 2023).

Experiment: Effect of temperature (and pH) on the stability of the solution (purity)
Format: physicochemical
Details: 7% solution in water

For `CCN(CC)CCOC(=O)COC(=O)Cc1c(C)n(C(=O)c2ccc(Cl)cc2)c2ccc(OC)cc12.Cl`, the “Purity(%) at day 0” value (pH 1.0, day 0) was 98.1 ± 0.3%, the “Purity(%) at day 21 (5° C.)” value (pH 1.0, day 21, 5° C.) was 91.9 ± 0.3% and the “Purity(%) at day 21 (25° C.)” value (pH 1.0, day 21, 25° C.) was 67.3 ± 0.3%. For the same compound, the “Purity(%) at day 21 (40° C.)” value (pH 1.0, day 21, 40° C.) was 15.6 ± 0.3%, the “Purity (%) at day 21 (60° C.)” value (pH 1.0, day 21, 60° C.) was 0% and the “Purity(%) at day 0” value (pH 2.0, day 0) was 98.3 ± 0.3%. The “Purity(%) at day 21 (5° C.)” value (pH 2.0, day 21, 5° C.) was 95.7 ± 0.2%, the “Purity(%) at day 21 (25° C.)” value (pH 2.0, day 21, 25° C.) was 82.2 ± 0.2% and the “Purity(%) at day 21 (40° C.)” value (pH 2.0, day 21, 40° C.) was 26.7 ± 0.3%. The “Purity (%) at day 21 (60° C.)” value (pH 2.0, day 21, 60° C.) was 0%, the “Purity(%) at day 0” value (pH 3.0, day 0) was 98.5 ± 0.2% and the “Purity(%) at day 21 (5° C.)” value (pH 3.0, day 21, 5° C.) was 98.0 ± 0.2%. The “Purity(%) at day 21 (25° C.)” value (pH 3.0, day 21, 25° C.) was 93.0 ± 0.2%, the “Purity(%) at day 21 (40° C.)” value (pH 3.0, day 21, 40° C.) was 47.7 ± 0.3% and the “Purity (%) at day 21 (60° C.)” value (pH 3.0, day 21, 60° C.) was 0%. The “Purity(%) at day 0” value (pH 3.7, day 0) was 98.7 ± 0.1%, the “Purity(%) at day 21 (5° C.)” value (pH 3.7, day 21, 5° C.) was 98.2 ± 0.1% and the “Purity(%) at day 21 (25° C.)” value (pH 3.7, day 21, 25° C.) was 97.1 ± 0.1%. For the same compound, the “Purity(%) at day 21 (40° C.)” value (pH 3.7, day 21, 40° C.) was 57.6 ± 0.2%, the “Purity (%) at day 21 (60° C.)” value (pH 3.7, day 21, 60° C.) was 13.9 ± 0.3% and the “Purity(%) at day 0” value (pH 4.0, day 0) was 98.7 ± 0.1%. For the same compound, the “Purity(%) at day 21 (5° C.)” value (pH 4.0, day 21, 5° C.) was 98.4 ± 0.1%, the “Purity(%) at day 21 (25° C.)” value (pH 4.0, day 21, 25° C.) was 97.4 ± 0.2% and the “Purity(%) at day 21 (40° C.)” value (pH 4.0, day 21, 40° C.) was 68.7 ± 0.3%. The “Purity (%) at day 21 (60° C.)” value (pH 4.0, day 21, 60° C.) was 19.2 ± 0.3%, the “Purity(%) at day 0” value (pH 4.3, day 0) was 98.8 ± 0.2% and the “Purity(%) at day 21 (5° C.)” value (pH 4.3, day 21, 5° C.) was 98.5 ± 0.1%. For the same compound, the “Purity(%) at day 21 (25° C.)” value (pH 4.3, day 21, 25° C.) was 97.5 ± 0.1%, the “Purity(%) at day 21 (40° C.)” value (pH 4.3, day 21, 40° C.) was 68.6 ± 0.3% and the “Purity (%) at day 21 (60° C.)” value (pH 4.3, day 21, 60° C.) was 17.9 ± 0.2%. For the same compound, the “Purity(%) at day 0” value (pH 4.6, day 0) was 98.8 ± 0.2%, the “Purity(%) at day 21 (5° C.)” value (pH 4.6, day 21, 5° C.) was 98.4 ± 0.2% and the “Purity(%) at day 21 (25° C.)” value (pH 4.6, day 21, 25° C.) was 96.5 ± 0.2%. For the same compound, the “Purity(%) at day 21 (40° C.)” value (pH 4.6, day 21, 40° C.) was 53.7 ± 0.2%, the “Purity (%) at day 21 (60° C.)” value (pH 4.6, day 21, 60° C.) was 14.8 ± 0.3% and the “Purity(%) at day 0” value (pH 5.0, day 0) was 98.6 ± 0.2%. For the same compound, the “Purity(%) at day 21 (5° C.)” value (pH 5.0, day 21, 5° C.) was 97.1 ± 0.2%, the “Purity(%) at day 21 (25° C.)” value (pH 5.0, day 21, 25° C.) was 93.8 ± 0.2% and the “Purity(%) at day 21 (40° C.)” value (pH 5.0, day 21, 40° C.) was 39.8 ± 0.3%. For the same compound, the “Purity (%) at day 21 (60° C.)” value (pH 5.0, day 21, 60° C.) was 3.2 ± 0.2%, the “Purity(%) at day 0” value (pH 6.0, day 0) was 98.4 ± 0.2% and the “Purity(%) at day 21 (5° C.)” value (pH 6.0, day 21, 5° C.) was 95.8 ± 0.2%. For the same compound, the “Purity(%) at day 21 (25° C.)” value (pH 6.0, day 21, 25° C.) was 86.9 ± 0.2%, the “Purity(%) at day 21 (40° C.)” value (pH 6.0, day 21, 40° C.) was 28.8 ± 0.2% and the “Purity (%) at day 21 (60° C.)” value (pH 6.0, day 21, 60° C.) was 0%. For the same compound, the “Purity(%) at day 0” value (pH 7.0, day 0) was 98.1 ± 0.2%, the “Purity(%) at day 21 (5° C.)” value (pH 7.0, day 21, 5° C.) was 90.2 ± 0.3% and the “Purity(%) at day 21 (25° C.)” value (pH 7.0, day 21, 25° C.) was 59.7 ± 0.3%. The “Purity(%) at day 21 (40° C.)” value (pH 7.0, day 21, 40° C.) was 11.2 ± 0.4%, the “Purity (%) at day 21 (60° C.)” value (pH 7.0, day 21, 60° C.) was 0% and the “Purity(%) at day 0” value (pH 8.0, day 0) was 97.7 ± 0.3%. For the same compound, the “Purity(%) at day 21 (5° C.)” value (pH 8.0, day 21, 5° C.) was 78.5 ± 0.2%, the “Purity(%) at day 21 (25° C.)” value (pH 8.0, day 21, 25° C.) was 47.9 ± 0.3% and the “Purity(%) at day 21 (40° C.)” value (pH 8.0, day 21, 40° C.) was 0%. For the same compound, the “Purity (%) at day 21 (60° C.)” value (pH 8.0, day 21, 60° C.) was 0%.
